For five compounds, Ki results are on record in BindingDB's records for doi:10.1111/cbdd.12575 (Universidade De Lisboa, 2015).

Usually Ki stands for the equilibrium dissociation constant of an inhibitor or competing ligand from its target.

In this test the target is T1, Nitric oxide synthase, inducible (Mus musculus, UniProt P29477).
T1 sequence (P29477 whole entry): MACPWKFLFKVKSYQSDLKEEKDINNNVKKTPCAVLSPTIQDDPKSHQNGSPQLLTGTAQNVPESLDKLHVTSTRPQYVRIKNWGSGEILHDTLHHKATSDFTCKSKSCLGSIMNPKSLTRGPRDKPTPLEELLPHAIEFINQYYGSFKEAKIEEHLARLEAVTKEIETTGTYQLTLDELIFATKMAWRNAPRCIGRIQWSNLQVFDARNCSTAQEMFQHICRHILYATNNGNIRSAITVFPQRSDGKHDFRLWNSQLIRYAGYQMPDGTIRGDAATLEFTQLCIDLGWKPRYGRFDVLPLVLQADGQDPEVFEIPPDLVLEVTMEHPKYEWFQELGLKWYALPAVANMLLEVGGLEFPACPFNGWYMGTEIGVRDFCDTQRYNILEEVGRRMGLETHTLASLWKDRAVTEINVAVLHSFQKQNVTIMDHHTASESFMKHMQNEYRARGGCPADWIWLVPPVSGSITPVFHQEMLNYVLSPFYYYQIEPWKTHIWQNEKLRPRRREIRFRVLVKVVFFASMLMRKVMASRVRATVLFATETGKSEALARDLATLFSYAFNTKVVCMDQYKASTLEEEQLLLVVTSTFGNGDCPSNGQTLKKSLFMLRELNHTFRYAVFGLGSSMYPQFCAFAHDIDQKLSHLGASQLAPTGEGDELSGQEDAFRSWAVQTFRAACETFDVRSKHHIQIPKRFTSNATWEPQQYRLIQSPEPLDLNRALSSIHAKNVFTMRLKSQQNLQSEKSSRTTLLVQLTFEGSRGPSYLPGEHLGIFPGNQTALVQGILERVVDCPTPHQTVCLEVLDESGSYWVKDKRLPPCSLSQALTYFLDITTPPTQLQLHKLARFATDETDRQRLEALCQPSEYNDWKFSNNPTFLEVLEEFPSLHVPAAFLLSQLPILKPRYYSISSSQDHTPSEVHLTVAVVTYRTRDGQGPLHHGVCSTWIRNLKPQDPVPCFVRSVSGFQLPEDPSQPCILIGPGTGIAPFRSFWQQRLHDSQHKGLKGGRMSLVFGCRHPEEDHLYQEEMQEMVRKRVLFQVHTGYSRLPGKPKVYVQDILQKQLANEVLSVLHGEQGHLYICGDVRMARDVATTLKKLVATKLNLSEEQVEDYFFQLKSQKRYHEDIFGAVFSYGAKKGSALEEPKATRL
The test is described as follows: iNOS Activity Assay. The protocol: The iNOS activity assay was based on the method of hemoglobin assay previously described with slight modifications. The activity of the enzyme was determined spectrophotometrically by monitoring the NO-mediated conversion of oxyhemoglobin to methemoglobin at 401 and 421 nm.
`NCC(N)(CCCC(=O)NC(CCCNC(N)=N[N+](=O)[O-])C(=O)O)C(=O)O` (stereo not given) [2-Amino-2-(aminomethyl)-6-(1-carboxy-4-(2-nitroguanidino)butylamino)-6-oxohexanoic acid (L5)] showed a Ki of 6.2 µM.
The figure for `N=C(NCCCC(N)(CN)C(=O)O)N[N+](=O)[O-]` (stereo not given) [2-Amino-2-(aminomethyl)-5-(3-nitroguanidino)pentanoic acid (L4)] is 29.4 µM; for `N=C(NCCCC12C[NH][Re]([CH]=O)([CH]=O)([CH]=O)([NH]1)[O]C2=O)N[N+](=O)[O-]` (stereo not given) [1,1,1-triformyl-4-(3-{[iminiumyl(nitroamino)methyl]amino}propyl)-3-oxo-2-oxa-6,7-diaza-1-rhenabicyclo[2.2.1]heptane-6,7-diium (Re4)] it is 241 µM.
The figure for `NCC(N)(CCCCCCC(=O)NC(CCCNC(N)=N[N+](=O)[O-])C(=O)O)C(=O)O` (stereo not given) [2-Amino-2-(aminomethyl)-9-(1-carboxy-4-(2-nitroguanidino)butylamino)-9-oxononanoic acid (L6)] is 760 µM.
For `N=C(NCCCC(NC(=O)CCCC12C[NH][Re]([CH]=O)([CH]=O)([CH]=O)([NH]1)[O]C2=O)C(=O)O)N[N+](=O)[O-]` (stereo not given) [4-{3-[(1-carboxylato-4-{[iminiumyl(nitroamino)methyl]amino}butyl)carbamoyl]propyl}-1,1,1-triformyl-3-oxo-2-oxa-6,7-diaza-1-rhenabicyclo[2.2.1]heptane-6,7-diium (Re5)] the value was 57.2 µM.
